Values quoted from earlier work as cited in patent publication US11147946B2, “Venous access catheters and methods for portal venous system catheterization” (THE REGENTS OF THE UNIVERSITY OF COLORADO, A BODY CORPORATE, priority 2014, dated 2021).
Values belong to the compound of their own block, whether it stands above or below them. Numbered stars: 1 amine (or outer) side, 2 acyl side, 3 side chain; on linkers, the order of the positions; unused ones are H or OH. Square brackets hold non-standard residues; d marks the D form. Side chains are listed from the residue outwards. Peptide text beside a SMILES is read from it. * marks the point of attachment. Ethylenediamine = C(CN[*:2])N[*:1]; Hyp = O=C(O)[C@@H]1C[C@@H](O)CN1; Phg = N[C@H](C(=O)O)c1ccccc1; CO = O=C([*:1])[*:2]; Bn = c1ccc(C*)cc1

Legend:
[1] = system: portal hypertension; settings: compared with propranolol, cirrhosis
[2] = target: SSTR4 (Homo sapiens, UniProt P31391)
[3] = target: SSTR1 (Homo sapiens, UniProt P30872)
[4] = target: SSTR2 (Homo sapiens, UniProt P30874)
[5] = target: SSTR3 (Homo sapiens, UniProt P32745)
[6] = target: SSTR5 (Homo sapiens, UniProt P35346)
[7] = system: human colon (Colo205) carcinoma cell line
[8] = system: human pancreas (BxPC-3) carcinoma cell line
[9] = system: human breast (MCF7) carcinoma cell line
[10] = target: (Homo sapiens, UniProt P08069)
[11] = system: human tumour; settings: in vivo xenograft and orthotopic models

Chain of SSTR2 (P30874 whole entry): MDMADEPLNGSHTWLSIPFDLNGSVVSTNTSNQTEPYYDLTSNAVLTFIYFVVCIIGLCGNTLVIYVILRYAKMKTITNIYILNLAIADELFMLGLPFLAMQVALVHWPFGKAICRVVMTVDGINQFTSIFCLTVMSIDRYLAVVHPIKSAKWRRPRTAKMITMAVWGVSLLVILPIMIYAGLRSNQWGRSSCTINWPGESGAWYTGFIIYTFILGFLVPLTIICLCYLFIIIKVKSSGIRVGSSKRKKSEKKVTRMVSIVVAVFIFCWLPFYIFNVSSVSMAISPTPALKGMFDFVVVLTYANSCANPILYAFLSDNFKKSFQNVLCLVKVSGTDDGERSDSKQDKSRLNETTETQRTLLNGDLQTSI
Chain of SSTR3 (P32745 whole entry): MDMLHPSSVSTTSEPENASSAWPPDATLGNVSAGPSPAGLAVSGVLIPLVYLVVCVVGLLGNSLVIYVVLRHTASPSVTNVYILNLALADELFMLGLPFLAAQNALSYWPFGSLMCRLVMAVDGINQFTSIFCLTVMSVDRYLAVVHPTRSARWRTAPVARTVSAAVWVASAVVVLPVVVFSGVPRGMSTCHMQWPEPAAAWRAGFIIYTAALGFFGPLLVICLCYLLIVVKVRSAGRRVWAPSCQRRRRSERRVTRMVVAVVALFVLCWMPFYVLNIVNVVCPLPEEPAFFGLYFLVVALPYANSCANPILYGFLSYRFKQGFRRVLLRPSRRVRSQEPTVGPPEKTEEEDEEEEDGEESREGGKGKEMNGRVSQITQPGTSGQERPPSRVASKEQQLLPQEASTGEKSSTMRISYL
Chain of SSTR1 (P30872 whole entry): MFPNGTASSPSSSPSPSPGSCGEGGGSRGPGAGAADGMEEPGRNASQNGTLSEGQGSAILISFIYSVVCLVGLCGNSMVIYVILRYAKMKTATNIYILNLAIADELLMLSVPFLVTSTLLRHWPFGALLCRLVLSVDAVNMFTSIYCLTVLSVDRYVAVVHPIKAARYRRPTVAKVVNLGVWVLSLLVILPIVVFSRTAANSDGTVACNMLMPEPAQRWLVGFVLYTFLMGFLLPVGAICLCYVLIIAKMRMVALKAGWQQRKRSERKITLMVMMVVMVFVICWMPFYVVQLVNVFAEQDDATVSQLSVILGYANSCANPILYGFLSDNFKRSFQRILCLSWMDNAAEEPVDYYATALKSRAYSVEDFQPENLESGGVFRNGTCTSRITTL
Chain of (Homo sapiens, UniProt P08069) (P08069 31-736 limits assumed): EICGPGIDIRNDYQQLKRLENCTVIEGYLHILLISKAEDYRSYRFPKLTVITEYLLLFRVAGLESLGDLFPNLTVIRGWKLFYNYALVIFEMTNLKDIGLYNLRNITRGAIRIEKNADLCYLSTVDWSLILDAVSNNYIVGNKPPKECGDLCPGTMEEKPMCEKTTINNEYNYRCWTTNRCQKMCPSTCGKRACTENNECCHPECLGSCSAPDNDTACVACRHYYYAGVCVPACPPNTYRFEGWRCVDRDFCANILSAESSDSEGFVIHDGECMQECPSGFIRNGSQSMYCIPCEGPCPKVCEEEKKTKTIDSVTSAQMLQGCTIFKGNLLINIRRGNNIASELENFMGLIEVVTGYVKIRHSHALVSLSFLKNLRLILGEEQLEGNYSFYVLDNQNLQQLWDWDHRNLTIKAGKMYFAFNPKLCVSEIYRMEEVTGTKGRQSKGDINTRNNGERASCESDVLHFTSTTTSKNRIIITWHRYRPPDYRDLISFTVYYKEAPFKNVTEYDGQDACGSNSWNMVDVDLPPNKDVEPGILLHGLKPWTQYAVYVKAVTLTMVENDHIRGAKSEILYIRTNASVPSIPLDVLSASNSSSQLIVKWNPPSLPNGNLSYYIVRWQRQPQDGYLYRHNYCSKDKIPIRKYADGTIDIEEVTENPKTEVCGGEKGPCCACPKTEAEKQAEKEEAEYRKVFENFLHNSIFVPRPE
Chain of (Homo sapiens, UniProt P08069) (P08069 741-1367 limits assumed): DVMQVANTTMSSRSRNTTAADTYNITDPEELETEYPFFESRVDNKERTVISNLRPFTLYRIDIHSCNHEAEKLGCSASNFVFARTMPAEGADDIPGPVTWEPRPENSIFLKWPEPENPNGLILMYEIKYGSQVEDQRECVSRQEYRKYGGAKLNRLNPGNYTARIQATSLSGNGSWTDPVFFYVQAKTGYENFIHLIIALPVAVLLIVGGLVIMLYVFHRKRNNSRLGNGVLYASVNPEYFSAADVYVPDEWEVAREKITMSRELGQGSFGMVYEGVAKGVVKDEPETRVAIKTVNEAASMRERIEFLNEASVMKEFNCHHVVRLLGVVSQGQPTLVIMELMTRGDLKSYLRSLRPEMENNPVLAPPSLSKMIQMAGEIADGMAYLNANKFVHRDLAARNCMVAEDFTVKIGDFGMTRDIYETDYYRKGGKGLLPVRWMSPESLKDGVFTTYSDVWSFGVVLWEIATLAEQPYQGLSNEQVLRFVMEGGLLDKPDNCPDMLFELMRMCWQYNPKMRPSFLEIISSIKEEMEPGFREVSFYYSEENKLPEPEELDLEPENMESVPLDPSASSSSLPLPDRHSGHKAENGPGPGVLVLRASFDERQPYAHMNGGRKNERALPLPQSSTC
Chain of SSTR4 (P31391 whole entry): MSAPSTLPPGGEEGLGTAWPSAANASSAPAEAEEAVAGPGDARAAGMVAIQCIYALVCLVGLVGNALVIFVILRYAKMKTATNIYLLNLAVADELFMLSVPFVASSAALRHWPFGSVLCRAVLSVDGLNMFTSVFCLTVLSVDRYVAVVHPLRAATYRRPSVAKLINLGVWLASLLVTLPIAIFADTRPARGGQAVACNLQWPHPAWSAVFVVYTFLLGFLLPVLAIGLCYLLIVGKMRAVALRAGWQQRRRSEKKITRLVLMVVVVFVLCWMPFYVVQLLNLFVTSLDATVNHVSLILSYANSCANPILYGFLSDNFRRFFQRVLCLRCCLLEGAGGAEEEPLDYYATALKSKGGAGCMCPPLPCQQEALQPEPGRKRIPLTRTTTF
Chain of SSTR5 (P35346 whole entry): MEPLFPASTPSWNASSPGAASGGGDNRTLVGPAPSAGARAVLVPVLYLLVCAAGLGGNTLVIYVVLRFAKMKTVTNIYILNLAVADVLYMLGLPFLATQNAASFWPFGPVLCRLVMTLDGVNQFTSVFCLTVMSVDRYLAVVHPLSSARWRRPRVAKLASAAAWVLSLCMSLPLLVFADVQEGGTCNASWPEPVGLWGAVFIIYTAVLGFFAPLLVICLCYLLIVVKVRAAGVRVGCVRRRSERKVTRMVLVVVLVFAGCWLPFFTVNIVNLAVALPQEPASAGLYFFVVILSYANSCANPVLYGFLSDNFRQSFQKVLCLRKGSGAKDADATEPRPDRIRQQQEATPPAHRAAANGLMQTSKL

Compound: COc1ccccc1OCCNCC(O)COc1cccc2[nH]c3ccccc3c12 (stereo not shown) [carvedilol]
reduction of portal hypertension (PH) [1]: more effective than propranolol

Compound: CC(C)[C@@H]1NC(=O)[C@H](CCCCN)NC(=O)[C@@H](Cc2c[nH]c3ccccc23)NC(=O)[C@H](Cc2ccc(O)cc2)NC(=O)[C@@H](NC(=O)[C@H](N)Cc2ccc3ccccc3c2)CSSC[C@@H](C(=O)N[C@H](C(N)=O)[C@@H](C)O)NC1=O [lanreotide]
binding affinity to SSTR4 [2]: reduced or no binding | binding affinity to SSTR1 [3]: reduced or no binding | binding affinity to SSTR2 [4]: high affinity | binding affinity to SSTR3 [5]: reduced or no binding

More lines, main results first:

binding affinity to SSTR2 [4]: high affinity | binding affinity to SSTR3 [5]: reduced affinity
Compound: C[C@@H](O)[C@@H]1NC(=O)[C@H](CCCCN)NC(=O)[C@@H](Cc2c[nH]c3ccccc23)NC(=O)[C@H](Cc2ccccc2)NC(=O)[C@@H](NC(=O)[C@H](N)Cc2ccccc2)CSSC[C@@H](C(=O)N[C@H](CO)[C@@H](C)O)NC1=O [octreotide]

binding affinity to SSTR1 [3]: decreased affinity | binding affinity to SSTR2 [4]: decreased affinity | binding affinity to SSTR5 [6]: high affinity | binding affinity to SSTR3 [5]: decreased affinity
Compound: NCCCC[C@@H]1NC(=O)[C@@H](Cc2c[nH]c3ccccc23)NC(=O)[C@H](c2ccccc2)NC(=O)[C@@H]2C[C@@H](OC(=O)NCCN)CN2C(=O)[C@H](Cc2ccccc2)NC(=O)[C@H](Cc2ccc(OCc3ccccc3)cc2)NC1=O [pasireotide] (cyclo([Hyp]([CO-Ethylenediamine])[Phg][dW]KY(Bn)F))

binding affinity [10]: high affinity
Compound: IMC-A12: fully human monoclonal IgG1 antibody, anti-IGF1R
cell apoptosis [7]: induces cell apoptosis | cell proliferation [7]: inhibits cell proliferation | cell apoptosis [8]: induces cell apoptosis | cell proliferation [8]: inhibits cell proliferation | cell apoptosis [9]: induces cell apoptosis | cell proliferation [9]: inhibits cell proliferation | antitumour activity [11]: shown activity against a human tumour
